For one data set, the system named is wheat seedlings. The following applies: 15000 ppm Prussian blue; 4.5 cm in its absence.
The subject of the next data set is maize inbred line Mo17. Put plainly: Shoot length of Mo17 after soil treatments and T22 seed treatment, Arkport sandy loam field soil. It counts as in vivo. The following applies: no seed treatment, soil drenched with mefenoxam, seven days after planting.

Description for maize inbred line Mo17: Ten-day assays were conducted in larger boxes (5×11×11 cm). Four or five seeds, either treated or not treated with T22, were planted in each box and plants were grown for various lengths of time with 12 hr diurnal fluorescent lighting and were watered as needed. In some experiments, soils were autoclaved to examine maize growth responses in the absence of natural soil pathogens. In addition, some soils were drenched with mefenoxam ((R)-2-[2,6-dimethylphenyl)-methoxyacetylamino]-propionic acid methyl ester]; Subdue MAXX, Novartis, Research Triangle, NC) according to the manufacturer's directions.
Excerpt for wheat seedlings: Ten wheat seeds were germinated in petri dishes containing approximately 50 g of grit sand. Each dish was moistened with plant nutrient solution in the presence or absence of 15000 ppm metallocyanide Prussian blue.

Turning to `[C-]#N.[C-]#N.[C-]#N.[C-]#N.[C-]#N.[C-]#N.[C-]#N.[C-]#N.[C-]#N.[C-]#N.[C-]#N.[C-]#N.[C-]#N.[C-]#N.[C-]#N.[C-]#N.[C-]#N.[C-]#N.[Fe+2].[Fe+2].[Fe+2].[Fe+3].[Fe+3].[Fe+3].[Fe+3]` [Prussian blue, Fe4 [Fe(CN)6]3], the “Mean root length of the wheat seedlings” value with wheat seedlings worked out at 2.0 cm.

Take `COCC(=O)N(c1c(C)cccc1C)[C@H](C)C(=O)OC` [mefenoxam]: the Shoot length in the data set with maize inbred line Mo17 is listed as 63ab xy mm.

(Values after patent US20040261578A1, “Stable self-organizing plant-organism systems for remediating polluted soils and waters” (priority 2003, published 2004).)
